Columns and labels:
Type in all cases: in vivo
[1] = system: ICR:CD1 male mice; test: Oxazolone contact hypersensitivity (contact dermatitis), ear redness and thickness; conditions: all three doses (10, 30, 100 mg/kg)
Method: Contact Hypersensitivity (Contact Dermatitis). Contact hypersensitivity (CHS)^3 is a T cell-mediated cutaneous immune/inflammatory reaction to haptens. Oxazolone can be used to evoke a contact hypersensitivity reaction and produce an animal model of contact dermatitis. Tenilsetam was assessed for its ability to affect oxazolone mediated contact dermatitis reaction.
Materials and Methods. ICR:CD1 male mice (Harlan) 12 to 13 weeks of age were used for this study. Animals were kept on a 12 hr light dark cycle and fed ad libitum.
Oxazolone sensitization. Mice were exposed to 50 μL of 3% oxazolone (in 100% ethanol) via topical application to the skin of the abdomen. Additional exposure was via the 4 paws with a small amount of oxazolone.
Oxazolone challenge. On day 5, both ears of mice were exposed to 1% oxazolone (20 μL per ear; 10 μL/side of ear).
Analysis. On day 6, ears were scored for redness on a 0-3 scoring basis and were measured for thickness using a micrometer. These values were recorded, group values were averaged and statistical differences determined by ANOVA followed by a Mann-Whitney U-test (for visual score) or by Tukey's test (for ear thickness). A p value of less than 0.05 was used to indicate statistical significance.
For this study, there were 5 groups: vehicle, and tenilsetam at 3 dose levels: 10, 30 and 100 mg/kg. In addition, there was a dexamethasone group. […]

[2] = system: TNFα; test: Lipopolysaccharide general inflammation / septic shock model, TNFα by ELISA; conditions: mice, LPS 0.25 mg/kg ip, blood 90 minutes after LPS; doses of 10 and 30 mg/kg, given 15 minutes prior to LPS; FIG. 3
Description: Lipopolysaccharide General Inflammation. Bolus injection of lethal or sublethal doses of lipopolysaccharide (LPS; the major component of bacterial cell wall) results in the rapid and transient rise in tumor necrosis factor (TNFα) levels in serum in mammals. This animal model was developed to mirror certain aspects of septic shock in humans. This model is also an effective first-line general inflammation model and may be used to determine the anti-inflammatory potential of test compounds.
Materials and methods. Male ICR:CD1 mice (Harlan Sprague Dawley, Indianapolis, Ind.) 9 to 10 weeks of age were housed three per cage, kept on a standard 12 hr light cycle and fed western (high-fat) diet for 5.5 weeks for these studies. Mice were provided food and water ad libitum.
Lipopolysaccharide (heat killed E. coli 0127:B5; SigmaAldrich) was prepared in water at a concentration of 0.025 mg/ml. LPS was dosed at a volume of 10 ml/kg (ip) to produce a final dose of 0.25 mg/kg or 7.5 μg/mouse. […] Plasma was prepared from blood and TNFα levels determined by ELISA as described below.
Serum TNFα levels were determined using the OptEIA™ mouse TNFα ELISA kit (BD Biosciences) as per directions of the manufacturer. Data were averaged and analyzed by ANOVA followed by a post-hoc Tukey's test with a p value of less then 0.05 indicating a statistical difference. […]

[3] = system: ICR:CD1 male mice; test: Delayed-type hypersensitivity (DTH), sheep red blood cell challenge, footpad swelling; conditions: SRBC challenge into footpad, all three doses (10, 30, 100 mg/kg)
Method: In this study, tenilsetam was assessed for its ability to affect the delayed-type hypersensitivity (DTH) reactions. DTH reactions are antigen-specific cell-mediated immune responses that can mediate harmful (e.g., allergic dermatitis and autoimmunity) aspects of immune function. The immune reaction induced by the method described below is characterized by swelling at the site of challenge and by an infiltration of monocytes/macrophages and lymphocytes into the epidermis and dermis. This model for skin DTH reactions has been used widely to monitor cell-mediated immune responses in vivo. […] (dexamethasone), a steroid anti-inflammatory, reduces cell-mediated immune responses and was employed to pharmacologically validate the assay.
Materials and Methods. ICR:CD1 male mice (Harlan) 12 to 13 weeks of age were used for this study. Animals were kept on a 12 hr light dark cycle and fed ad libitum. On day 1 of the study, mice were injected IV with 1×10^6 of washed sheep red blood cells in a volume of 200 μL. Mice were administered tenilsetam on day 6. […]
On day 7, mice were re-administered drug as above. Footpad thickness of both the back right and back left foot pads was measured using a digital micrometer. […]
Data are expressed as the average±SEM. Data were averaged and analyzed by ANOVA followed by a post-hoc Tukey's test with a p value of less then 0.05 indicating a statistical difference. […]

## O=C1NCCNC1c1cccs1 (racemic) [Tenilsetam, (+/−)-3-(2-thienyl)-2-piperazinone]
[1]; day 6, 0-3 redness score, FIG. 2A
  ear swelling after oxazolone challenge, visual scoring: significantly decreased
[1]; day 6, micrometer, FIG. 2B
  ear swelling after oxazolone challenge, ear thickness measurements: significantly decreased
[2]
  TNFα levels: decreased
[3]
  foot swelling by visual examination: significantly decreased
[3]; FIG. 1
  foot swelling as measured using a micrometer: significantly decreased

— patent US8716294B2, “Methods for treating inflammatory conditions” (Melior Discovery, Inc., priority 2006, dated 2014)
